Assays:
BCLXL expression = details: rat depression model, chronic administration; cited from earlier work
CYP2C9 = CYP2C9 (Homo sapiens, UniProt P11712); details: cited from earlier work
c-fos [1] = details: rat; cited from earlier work
laminin, CAM-L1, pCREB = details: chronic administration, unstressed rats; cited from earlier work
GluR1 = details: cited from earlier work
c-fos [2] = details: unstressed rats; cited from earlier work
CYP2C19 = CYP2C19 (Homo sapiens, UniProt P33261); details: cited from earlier work
CYP2C19, sequence (P33261 whole entry): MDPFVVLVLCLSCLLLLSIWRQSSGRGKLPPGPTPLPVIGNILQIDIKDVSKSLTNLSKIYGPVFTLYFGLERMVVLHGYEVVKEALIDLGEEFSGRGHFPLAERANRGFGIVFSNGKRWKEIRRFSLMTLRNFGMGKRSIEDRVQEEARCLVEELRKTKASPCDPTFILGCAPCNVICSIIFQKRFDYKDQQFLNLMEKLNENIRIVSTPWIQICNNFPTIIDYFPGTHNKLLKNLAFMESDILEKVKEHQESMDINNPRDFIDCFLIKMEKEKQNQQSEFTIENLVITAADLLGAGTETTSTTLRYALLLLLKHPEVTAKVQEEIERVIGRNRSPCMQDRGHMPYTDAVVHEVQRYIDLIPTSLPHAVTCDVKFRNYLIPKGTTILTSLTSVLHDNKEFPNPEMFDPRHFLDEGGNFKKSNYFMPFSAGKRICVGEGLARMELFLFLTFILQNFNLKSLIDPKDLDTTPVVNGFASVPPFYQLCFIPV

CYP1A2 = biological target: T1, CYP1A2 (Homo sapiens, UniProt P05177); details: cited from earlier work
T1 sequence (P05177 1-516): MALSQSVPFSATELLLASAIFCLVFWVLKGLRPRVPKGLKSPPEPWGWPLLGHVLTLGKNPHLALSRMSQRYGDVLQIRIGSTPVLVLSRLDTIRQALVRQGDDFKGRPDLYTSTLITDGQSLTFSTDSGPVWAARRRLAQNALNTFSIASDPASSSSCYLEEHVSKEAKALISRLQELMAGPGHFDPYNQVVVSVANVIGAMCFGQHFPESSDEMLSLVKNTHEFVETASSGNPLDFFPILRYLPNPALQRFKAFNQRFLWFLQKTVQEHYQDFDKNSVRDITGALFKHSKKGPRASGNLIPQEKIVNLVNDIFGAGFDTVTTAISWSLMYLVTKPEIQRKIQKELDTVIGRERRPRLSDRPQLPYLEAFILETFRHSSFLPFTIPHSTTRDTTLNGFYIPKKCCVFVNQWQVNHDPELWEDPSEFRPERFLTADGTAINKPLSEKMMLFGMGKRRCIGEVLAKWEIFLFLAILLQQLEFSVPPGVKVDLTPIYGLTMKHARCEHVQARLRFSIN

MAPK1 = details: cultured rat astrocytes; cited from earlier work
patients with MDD = assay: Five Phase II studies of vilazodone, eight weeks of treatment; format: in vivo, human; details: active comparator in three Phase II studies
Excerpt: As part of the vilazodone development program, five Phase II studies have been conducted, all in patients with MDD. These studies randomized 2,098 patients for eight weeks of treatment, 1196 of whom received vilazodone.

CYP3A4 = CYP3A4 (Homo sapiens, UniProt P08684); details: cited from earlier work
CYP3A4, sequence (P08684 whole entry): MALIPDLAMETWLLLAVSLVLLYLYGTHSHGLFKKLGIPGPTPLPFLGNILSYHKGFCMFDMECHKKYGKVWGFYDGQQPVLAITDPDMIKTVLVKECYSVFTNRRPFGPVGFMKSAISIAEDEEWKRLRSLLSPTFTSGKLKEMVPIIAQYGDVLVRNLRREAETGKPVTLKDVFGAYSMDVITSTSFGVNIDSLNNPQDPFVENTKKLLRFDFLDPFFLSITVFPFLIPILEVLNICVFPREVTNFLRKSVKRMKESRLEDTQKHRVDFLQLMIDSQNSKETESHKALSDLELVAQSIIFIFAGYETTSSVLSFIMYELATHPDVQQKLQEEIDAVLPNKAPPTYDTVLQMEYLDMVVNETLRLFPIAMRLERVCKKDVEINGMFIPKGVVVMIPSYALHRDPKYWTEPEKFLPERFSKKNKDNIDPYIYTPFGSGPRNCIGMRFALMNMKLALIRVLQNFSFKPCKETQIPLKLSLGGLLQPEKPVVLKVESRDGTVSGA

PLC-β1 knockout mice = details: cited from earlier work
GluR1, GluR2, and GluR3 = details: chronic (30 days) administration; mouse nucleus accumbens and dorsal striatum; cited from earlier work
26S proteasome = details: cited from earlier work
mice = details: intracerebroventricular injection; cited from earlier work

CYP2C9, sequence (P11712 whole entry): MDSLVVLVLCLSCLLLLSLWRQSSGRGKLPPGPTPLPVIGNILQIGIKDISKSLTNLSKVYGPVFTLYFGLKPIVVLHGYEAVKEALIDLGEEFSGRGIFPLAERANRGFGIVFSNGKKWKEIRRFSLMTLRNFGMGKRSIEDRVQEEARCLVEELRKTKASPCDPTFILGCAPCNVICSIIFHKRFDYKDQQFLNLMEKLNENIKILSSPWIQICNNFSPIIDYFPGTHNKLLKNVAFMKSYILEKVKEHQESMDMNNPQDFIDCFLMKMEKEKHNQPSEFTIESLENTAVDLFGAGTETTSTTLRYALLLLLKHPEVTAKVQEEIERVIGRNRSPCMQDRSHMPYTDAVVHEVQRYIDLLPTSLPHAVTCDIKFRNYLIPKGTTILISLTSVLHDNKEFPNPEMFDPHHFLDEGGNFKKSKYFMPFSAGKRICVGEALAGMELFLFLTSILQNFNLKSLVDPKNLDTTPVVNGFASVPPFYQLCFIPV

For N[C@@H]1C[C@H]1c1ccccc1 (racemic) [tranylcypromine], the “BCLXL expression in the CA1 and DG subfields” value (BCLXL expression) is given as “increased”.
In the case of CN[C@H]1CC[C@@H](c2ccc(Cl)c(Cl)c2)c2ccccc21 [Sertraline], the “inhibition of CYP2C9” value (CYP2C9) is given as “partially inhibit”.
In the case of CN(C)CCCN1c2ccccc2CCc2ccc(Cl)cc21 [clomipramine], the “level of c-fos in the PAG brain region” value (c-fos [1]) is given as “decreased”.
In the case of CNCCCN1c2ccccc2CCc2ccccc21 [desipramine], the “laminin and CAM-L1 in hippocampus and frontal cortex” value (laminin, CAM-L1, pCREB) is listed as “increased”, the pCREB (laminin, CAM-L1, pCREB) is listed as “increased pCREB in the frontal cortex only” and the “level of c-fos in the PAG brain region” value (c-fos [1]) is listed as “decreased”.
In the case of CNCCC(Oc1ccc(C(F)(F)F)cc1)c1ccccc1 (stereo not shown) [fluoxetine], the “phosphorylation of GluR1” value (GluR1) is listed as “increase”, the “c-fos staining in the brain” value (c-fos [2]) is listed as “decrease” and the “inhibition of CYP2C19” value (CYP2C19) is listed as “inhibit”. For the same compound, the “inhibition of CYP1A2” value (CYP1A2) was “inhibit”, the MAPK1 activation (MAPK1) was “increased” and the “Hamilton Depression Scale (HAM-D) total score versus placebo” value (patients with MDD) was “did not show a statistically significant improvement”. The “inhibition of CYP3A4” value (CYP3A4) was “inhibit”.
In the case of O=C(CCCN1CCC(O)(c2ccc(Cl)cc2)CC1)c1ccc(F)cc1 [haloperidol], the schizophrenic-like behaviors (PLC-β1 knockout mice) is given as “rescued”.
In the case of CNCCCC12CCC(c3ccccc31)c1ccccc12 [maprotiline], the “GluR1, GluR2, and GluR3” value (GluR1, GluR2, and GluR3) is listed as “increased”.
For CCCCC[C@H](O)/C=C/[C@H]1C(=O)C=C[C@@H]1C/C=C\CCCC(=O)O [prostaglandin J2], the “function of the 26S proteasome” value (26S proteasome) is given as “inhibited”.
For CCOc1ccccc1OC(c1ccccc1)C1CNCCO1 (stereo not shown) [reboxetine], the “BCLXL expression in the CA1 and DG subfields” value (BCLXL expression) is given as “increased” and the “c-fos staining in the brain” value (c-fos [2]) is given as “decrease”.
In the case of neuropeptide Y [NPY], the antidepressant-like effect (mice) is listed as “dose dependent antidepressant-like effect”.
